Reference: ChEMBL document CHEMBL3526149, “Brain tissue binding of drugs: evaluation and validation of solid supported porcine brain membrane vesicles (TRANSIL) as a novel high-throughput method” (Drug Metab Dispos, 2011)

Key:
[1] = Fraction unbound in Wistar rat brain homogenate at 5 uM after 5 hrs by equilibrium dialysis method
[2] = Percentage unbound in solid supported porcine brain membrane vesicles at 5 uM by TRANSIL assay; settings: pig
[3] = Ratio of fraction unbound in Wistar rat brain homogenate at 5 uM after 5 hrs by equilibrium dialysis method to fraction unbound in solid supported porcine brain membrane vesicles at 5 uM by TRANSIL assay
[4] = Percentage unbound in solid supported porcine brain membrane vesicles at 5 uM using four compound cocktail after 5 hrs by TRANSIL assay; type: ADME, tissue-based, Sus scrofa; settings: pig
[5] = Ratio, ratio of fraction unbound in solid supported porcine brain membrane vesicles at 5 uM dosed as discrete compounds after 5 hrs by TRANSIL assay to fraction unbound in solid supported porcine brain membrane vesicles at 5 uM using four compound cocktail after 5 hrs by TRANSIL assay; type: ADME, Sus scrofa; settings: pig
[6] = Ratio of fraction unbound in solid supported porcine brain membrane vesicles at 5 uM by TRANSIL assay to fraction unbound in Wistar rat brain homogenate at 5 uM after 5 hrs by equilibrium dialysis method; type: ADME, tissue-based
[7] = Binding affinity to Wistar rat brain lipid by TRANSIL assay; type: ADME
Albumin = Albumin (Rattus norvegicus, UniProt P02770); test: Binding affinity to Wistar rat serum albumin; type: ADME
Chain of Albumin (P02770 whole entry): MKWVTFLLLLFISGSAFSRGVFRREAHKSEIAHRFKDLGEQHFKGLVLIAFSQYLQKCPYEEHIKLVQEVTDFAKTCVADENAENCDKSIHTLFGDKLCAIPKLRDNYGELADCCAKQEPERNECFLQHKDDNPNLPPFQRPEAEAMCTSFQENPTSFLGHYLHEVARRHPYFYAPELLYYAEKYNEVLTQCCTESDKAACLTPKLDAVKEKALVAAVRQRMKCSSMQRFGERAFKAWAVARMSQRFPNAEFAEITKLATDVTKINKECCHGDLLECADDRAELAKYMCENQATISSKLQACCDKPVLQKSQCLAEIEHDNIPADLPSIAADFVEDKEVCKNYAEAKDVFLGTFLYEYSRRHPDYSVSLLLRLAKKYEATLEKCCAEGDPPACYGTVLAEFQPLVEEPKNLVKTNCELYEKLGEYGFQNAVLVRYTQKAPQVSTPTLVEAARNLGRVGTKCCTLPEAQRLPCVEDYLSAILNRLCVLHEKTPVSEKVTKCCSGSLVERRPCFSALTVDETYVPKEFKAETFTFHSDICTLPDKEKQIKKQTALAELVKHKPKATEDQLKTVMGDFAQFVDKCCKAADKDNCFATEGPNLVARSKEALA

[8] = Binding affinity to Wistar rat brain lipid assessed as percentage unbound by TRANSIL assay; type: ADME, tissue-based
[9] = solid supported porcine brain membrane vesicles

Structure (SMILES)	fraction unbound at 5 h, 5 µM [1]	fraction unbound at 5 µM ([2]; Brain)	Ratio [3]	fraction unbound at 5 µM [2, 9]	fraction unbound at 5 h, 5 µM [4]	Ratio ([5]; in vitro)	Ratio [6]	Kd [7]	Kd (Albumin)	fraction unbound [8]	Ratio [5]
Fc1ccc([C@@H]2CCNC[C@H]2COc2ccc3c(c2)OCO3)cc1 [PAROXETINE]	0.0039	0.0026	1.5								
CC(C)NCC(O)COc1cccc2ccccc12 (stereo not drawn) [PROPRANOLOL]	0.03		1.5	0.02	0.02	1					
CCCC(C)(COC(N)=O)COC(=O)NC(C)C (stereo not drawn) [CARISOPRODOL]	0.202			0.295			1.5				
Cn1c(=O)c2c(ncn2C)n(C)c1=O [CAFFEINE]	0.52	0.26	2								
CSc1ccc2c(c1)N(CCC1CCCCN1C)c1ccccc1S2 (stereo not drawn) [THIORIDAZINE]	0.001	0.0003	3.3					0.369 µM	6.69 µM	0.0031	
CCN(CC)CCNC(=O)c1cc(Cl)c(N)cc1OC [METOCLOPRAMIDE]	0.36	0.295						88.9 µM		0.426	
NC(=O)N1c2ccccc2C=Cc2ccccc21 [CARBAMAZEPINE]	0.119	0.132			0.26			24.2 µM		0.168	
CN(C)CCCN1c2ccccc2Sc2ccc(Cl)cc21 [CHLORPROMAZINE]	0.002	0.0022						0.184 µM		0.0015	
CN(C)CCC=C1c2ccccc2CCc2ccccc21 [AMITRIPTYLINE]	0.009		1.2	0.0073	0.0071	1		1.01 µM	134 µM	0.0083	
CN(C)CCC=C1c2ccccc2C=Cc2ccccc21 [CYCLOBENZAPRINE]	0.0073	0.01					1.4				
CC(=O)CC(c1ccccc1)c1c(O)c2ccccc2oc1=O (stereo not drawn) [WARFARIN]								81.4 µM		0.405	
CCN1CCCC1CNC(=O)c1cc(S(N)(=O)=O)ccc1OC (stereo not drawn) [SULPIRIDE]	0.63	0.24	2.6								
COc1ccc(C(CN(C)C)C2(O)CCCCC2)cc1 (stereo not drawn) [VENLAFAXINE]	0.21	0.123						38.2 µM		0.242	
O=C1NC(=O)C(c2ccccc2)(c2ccccc2)N1 [PHENYTOIN]	0.081	0.047	1.7								
CN1CCN(C2=Nc3cc(Cl)ccc3Nc3ccccc32)CC1 [CLOZAPINE]	0.011	0.0072	1.5		0.0092	0.8		0.775 µM	78.8 µM	0.0064	
CC(C)Cc1ccc(C(C)C(=O)O)cc1 (stereo not drawn) [IBUPROFEN]								52.7 µM			
CC(NC(C)(C)C)C(=O)c1cccc(Cl)c1 (stereo not drawn) [BUPROPION]	0.17		1	0.17	0.14						1.2
CN1CCN(CCCN2c3ccccc3Sc3ccc(C(F)(F)F)cc32)CC1 [TRIFLUOPERAZINE]	0.0007	0.0018						0.392 µM		0.0033	
CNCCC(Oc1ccc(C(F)(F)F)cc1)c1ccccc1 (stereo not drawn) [FLUOXETINE]	0.004		1.3	0.003				0.323 µM	36.1 µM	0.0027	
Cc1nc2n(c(=O)c1CCN1CCC(c3noc4cc(F)ccc34)CC1)CCCC2 [RISPERIDONE]		0.057							43.8 µM	0.121	
Cc1ncc2n1-c1ccc(Cl)cc1C(c1ccccc1F)=NC2 [MIDAZOLAM]	0.023	0.041			0.037		1.8				1.1
O=C(CCCN1CCC(O)(c2ccc(Cl)cc2)CC1)c1ccc(F)cc1 [HALOPERIDOL]	0.011	0.014			0.014	1	1.3	1.56 µM	96.9 µM	0.0129	
CCCCN1CCCCC1C(=O)Nc1c(C)cccc1C (stereo not drawn) [BUPIVACAINE]	0.278		1.6	0.17	0.19	0.9					
CNCCC=C1c2ccccc2CCc2ccccc21 [NORTRIPTYLINE]	0.0046	0.004	1.2								
O=c1n(CCCN2CCN(c3cccc(Cl)c3)CC2)nc2ccccn12 [TRAZODONE]	0.055		1	0.057				5.47 µM	7.95 µM	0.0437	
OCCOCCN1CCN(C(c2ccccc2)c2ccc(Cl)cc2)CC1 (stereo not drawn) [HYDROXYZINE]	0.0102	0.021					2.1				
